In paper PMC10740156, “Discovery of potential WEE1 inhibitors via hybrid virtual screening” (Frontiers in Pharmacology, 2023):
Structures can show the parent of a compound that is named as a salt. One block for each molecule: values may come before it.

Tests used:
[1] = test system: PC9 cells; experiment: Cell apoptosis analysis (Annexin V/PI flow cytometry); assay type: cell-based, human; settings: 500 nM, 72 h; for percentage of apoptotic cells (early apoptosis + late apoptosis): blank control 13.24%
Description: (§1) For apoptosis detection, Cells were performed with Pharmingen FITC Annexin V Detection KitⅠ(BD Bioscience, Oxford, UK). Briefly, Cells were harvested and washed once with 1×binding buffer and then incubated with Annexin V and Propidium Iodide (PI) for 15 min in the dark at 37°C.
(§2) All samples were acquired by flow cytometry (FACS CantoⅡ, BD Bioscience) and analysed with Flowjo software version 10.4.

[2] = test system: A549 cells; experiment: as above; assay type: cell-based, human; settings: 2 μM, 72 h; for percentage of apoptotic cells (early apoptosis + late apoptosis): blank control 9.86%
Description: as §1, §2

[3] = test system: HuH-7 cells; experiment: Anti-proliferation activity assay (CCK-8); assay type: cell-based, human
Description: (§3) Anti-proliferation activity assay was detected by Cell Counting Kit-8 detection kit (CCK-8, #K1018) provided by Apexbio (United States). In brief, cells were seeded in 96-wells plates at a density of 3 × 10^3/well for 24 h. Then, cells were treated with indicated concentrations of compounds for 72 h. Supernatant was totally removed, and 100 μL of CCK-8 solution was added to each well and cultured for another 1 h at 37°C. The absorbance of plates was measured by SpectraMax M2 (Molecular Devices, San Jose, CA, United States) at 450 nm. […] Assays were performed on three independent experiments.

[4] = test system: A549 cells; experiment: Anti-proliferation activity assay (CCK-8); assay type: cell-based; settings: Homo sapiens, 72 h
Description: as §3

[5] = test system: Bel-7402 cells; experiment: Anti-proliferation activity assay (CCK-8); assay type: cell-based; settings: Homo sapiens, 72 h
Description: as §3

[6] = test system: PC9 cells; experiment: Cell cycle analysis (PI staining flow cytometry); assay type: cell-based, human; settings: 500 nM, 24 h, compared to blank group
Description: (§4) For cell cycle detection, Cells were harvested and gently washed with PBS, and fixed with 70% cold ethanol −20°C overnight. After centrifugation, Cells were retained for precipitation and incubated with PI/RNase Staining Buffer (BD Bioscience, Oxford, United Kingdom) for 15 min in the dark at 37°C.
as §2

[7] = test system: A549 cells; experiment: Cell cycle analysis (PI staining flow cytometry); assay type: cell-based, human; settings: 2 μM, 24 h
Description: as §4, §2

[8] = biological target: WEE1 kinase (Homo sapiens, UniProt P30291); experiment: Inhibitory activity assay (ADP-Glo kinase assay); assay type: biochemical; settings: for IC50: WEE1 kinase; for Inhibition Rate / inhibition at 25 µM: compound 25 μM, relative inhibition rate, Staurosporine (10 µM) as positive control
Chain of WEE1 kinase (P30291 whole entry): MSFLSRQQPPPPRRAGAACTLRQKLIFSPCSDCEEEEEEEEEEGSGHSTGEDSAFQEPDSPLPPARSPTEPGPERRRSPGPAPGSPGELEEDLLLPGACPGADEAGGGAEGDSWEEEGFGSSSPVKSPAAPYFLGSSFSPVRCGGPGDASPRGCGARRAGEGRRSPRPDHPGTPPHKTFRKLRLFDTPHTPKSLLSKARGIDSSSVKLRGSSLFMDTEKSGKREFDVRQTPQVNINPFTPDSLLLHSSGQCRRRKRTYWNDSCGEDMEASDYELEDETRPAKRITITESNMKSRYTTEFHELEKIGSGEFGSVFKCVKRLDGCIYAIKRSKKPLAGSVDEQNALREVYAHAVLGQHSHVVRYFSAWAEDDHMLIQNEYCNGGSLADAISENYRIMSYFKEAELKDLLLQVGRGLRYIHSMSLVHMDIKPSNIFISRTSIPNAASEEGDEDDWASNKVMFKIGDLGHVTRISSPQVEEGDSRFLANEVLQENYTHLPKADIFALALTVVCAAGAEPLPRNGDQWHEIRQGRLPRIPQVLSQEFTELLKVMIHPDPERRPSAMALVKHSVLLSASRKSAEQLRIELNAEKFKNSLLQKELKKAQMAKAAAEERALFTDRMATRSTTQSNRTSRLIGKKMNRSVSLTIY
Description: The tested compounds were dissolved in DMSO to make a 10 mM stock solution, which was further diluted to a drug solution of 25 µM. […] Transfer 20 nL compound to 384 assay plate by Echo 655. […] 8 μL of kinase detection reagent was added to the well, and incubated for 40 min at 25°C. Read the RLU (relative light-emitting unit) signal using the BMG multifunction microplate reader, and the signal intensity is used to characterize the degree of kinase activity. […] Staurosporine is a prototypical ATP-competitive kinase inhibitor in that it binds to many kinases with high affinity. The inhibition rates were calculated using the equations (X: log of inhibitor concentration; Y: % Inhibition). Assays were performed on three independent experiments. Y=Bottom+Top – Bottom/(1+10^ (LogIC50 – X×hillslope))

[9] = test system: PC9 cells; experiment: Anti-proliferation activity assay (CCK-8); assay type: cell-based; settings: Homo sapiens, PC-9, 72 h
Description: as §3

Molecule: CNC(=O)c1ccccc1Nc1nc(Nc2ccc(N3CCN(CCCN)CC3)cc2)ncc1Cl [Compound 4, GSK3182571]
Q1 (flow cytometry quadrant) [1]: 0.014 | Q2% (late apoptosis rate) [1]: 4.55% | Q3% (early apoptosis rate) [1]: 80.2% | Q4 (flow cytometry quadrant) [1]: 15.2 | percentage of apoptotic cells (early apoptosis + late apoptosis) [1]: 84.75% | Q2% (late apoptosis rate) [2]: 8.55% | Q3% (early apoptosis rate) [2]: 9.18% | Q4 (flow cytometry quadrant) [2]: 82.2 | percentage of apoptotic cells (early apoptosis + late apoptosis) [2]: 17.73% | IC50 ([3]; 72 h): 875 nM | IC50 ([3]; Homo sapiens, Huh-7, 72 h): 880 nM | IC50 [4]: 5170 nM | IC50 [5]: 147 nM | proportion of cells in the G1 phase [6]: significantly increased | proportion of cells in the G2 phase [6]: did not change significantly | cell cycle distribution [7]: no significant change | IC50 [8]: 1.07 nM | Inhibition Rate [8]: 126.59 ± 1.66%

Molecule: CNC(=O)c1nn(C)c2c1C(C)(C)Cc1cnc(Nc3ccc(N4CCN(C)CC4)cc3)nc1-2 [Compound 5, Milciclib]
IC50 ([3]; Homo sapiens, Huh-7, 72 h): 80000 nM | IC50 [9]: 8880 nM | IC50 [8]: 3.77 nM | Inhibition Rate [8]: 137.84 ± 1.08%

Molecule: CCN1CCN(Cc2ccc(-c3cc4c(N[C@H](C)c5ccccc5)ncnc4[nH]3)cc2)CC1 [Compound 2, AEE788]
IC50 [8]: 103 nM | Inhibition Rate [8]: 134.70 ± 1.61%

Molecule: CCN1CCN(C(=O)Cc2ccc(Nc3ncc(F)c(Nc4ccc(C(=O)Nc5ccccc5Cl)cc4)n3)cc2)CC1 [Compound 8, TCS7010]
IC50 [8]: 797 nM | Inhibition Rate [8]: 95.45 ± 2.24% | inhibition at 25 µM [8]: ~100%

Molecule: CNS(=O)(=O)c1ccccc1Nc1nc(Nc2ccc(N3CCN(C)CC3)cc2OC)ncc1Cl [Compound 3, ALK inhibitor 2]
IC50 [8]: 988 nM | Inhibition Rate [8]: 127.17 ± 1.08%

Molecule: Denfivontinib [Compound 1]
Inhibition Rate [8]: 64.18 ± 1.16%

Molecule: C=CCn1c(=O)c2cnc(Nc3ccc(N4CCN(C)CC4)cc3)nc2n1-c1cccc(C(C)(C)O)n1 [AZD1775, Adavosertib, reference compound]
Q1 (flow cytometry quadrant) [1]: 0.015 | Q2% (late apoptosis rate) [1]: 5.20% | Q3% (early apoptosis rate) [1]: 22.0% | Q4 (flow cytometry quadrant) [1]: 72.8 | percentage of apoptotic cells (early apoptosis + late apoptosis) [1]: 27.20% | Q2% (late apoptosis rate) [2]: 5.52% | Q3% (early apoptosis rate) [2]: 11.1% | Q4 (flow cytometry quadrant) [2]: 83.3 | percentage of apoptotic cells (early apoptosis + late apoptosis) [2]: 16.62% | cell cycle distribution [7]: no significant change

Results, then the molecule that gave them:

inhibition at 25 µM [8]: 32.77 ± 0.22%
Molecule: COc1cc(-c2cc(-c3ccc(N4CCNCC4)cc3)cnc2C)cc(OC)c1OC [Compound 10, LDN-214117]

inhibition at 25 µM [8]: 58.2 ± 4.03%
Molecule: C[C@@H](Oc1ccc2[nH]nc(/C=C/c3cnn(CCO)c3)c2c1)c1c(Cl)cncc1Cl [Compound 9, LY2874455]

inhibition at 25 µM [8]: 24.8 ± 2.33%
Molecule: CN1CCCN(C(=O)c2cccc(-c3ccc(/C=C4/C(=O)Nc5ccc(Cl)cc54)o3)c2)CC1 [Compound 6, CX-6258 hydrochloride]
